# According to paper PMC11742723, “The clinical-stage drug BTZ-043 accumulates in murine tuberculosis lesions and efficiently acts against Mycobacterium tuberculosis” (Nature Communications, 2025):
# Several values for one entry are separate records, joined by “and”; a condition that tells them apart may be missing. Identical values can stand only once. Like-named read-outs stand apart in the source and are kept apart here.
# What was measured:
# [1] = for ng BTZ-043 / mg cryosection: individual cryosections; for BTZ-043 concentration in lung cryosections: Mtb-infected IL-13tg mice, 10 daily doses 250 mg/kg, one mouse each, n=5 cryosections, 250 mg/kg
# [2] = LCM coupled LC-MS/MS of necrotic granulomas and non-necrotic regions; assay type: in vivo, IL-13tg mice; settings: for concentration at 4 h: IL-13tg, mouse, oral
# Method: Necrotic granulomas and non-necrotic regions were dissected from 2 to 3 γ−irradiated serial lung cryosections (thickness: 12 µm) using a PALM Microbeam (Zeiss, Oberkochen, Germany). Laser-dissected tissues were captured in an ascorbic acid solution (2.5 mg/mL) to prevent the degradation of BTZ-043 and stored at -80 °C. Samples were thawed on ice before drying in the SpeedVac. For reconstitution 80 µL of an 80% ACN/ 20% FA, containing 20 ng/mL reserpine and d4-BTZ-043, were added. The samples were vortexed for 1 min and kept in an ultrasonic bath for 3 min. Subsequently, the samples were centrifuged (10 min, 15,000 × g). The supernatant was transferred into a glass vial and 5 µL was injected into the LC. The LC settings and MS parameters were the same as described for the tissue mimetics (Supplementary Methods). As internal standard d4-BTZ-043 was utilized, with the m/z-transitions 436.0 → 86.0 (cone voltage of 30 V, collision energy of 30 eV, dwell time of 0.2 s) as quantifier. With the expected very low concentrations of the analyte in the LCM material, the deuterated standard was applied to better mimic matrix effects and recovery for this analysis. For calibration curve preparation lung homogenate from drug-naïve mice was added to 80% ACN/20% FA (1%), containing reserpine (as QC) and d4-BTZ-043 (20 ng/mL per sample) to the final solution containing about 0.44 µg tissue/mL, which equals the average weight of the obtained material of the LCM. After centrifugation (5 min, 15,000 × g) the supernatant was spiked with BTZ-043 to yield a calibration curve ranging from 0.00015–0.025 µg/mL.
# [3] = LCM flakes from adjacent area (non necrotic), 4h post administration, listed as BTZ
smiles,measurement,setting,value
C[C@H]1COC2(CCN(c3nc(=O)c4cc(C(F)(F)F)cc([N+](=O)[O-])c4s3)CC2)O1 [BTZ-043],ng BTZ-043 / mg cryosection,"[1]; 2 h after administration, mouse KW116 B9#1 (male)",1.02 ng / mg cryosection and 0.92 ng / mg cryosection and 0.62 ng / mg cryosection
same,ng BTZ-043 / mg cryosection,"[1]; 8 h after administration, mouse KW116 B15#1 (female)",0.27 ng / mg cryosection (2×) and 0.21 ng / mg cryosection and 0.36 ng / mg cryosection
same,pulmonary drug concentrations in lung cryosections,"[1]; IL-13tg mice, until 8 h after administration",270 to 1940 ng/g
same,BTZ-043 concentration in lung cryosections,[1]; 0.5 h after last administration,1.32 ± 0.33 ng/mg cryosection
same,BTZ-043 concentration in lung cryosections,[1]; 2 h after last administration,1.10 ± 0.25 ng/mg cryosection
same,BTZ-043 concentration in lung cryosections,[1]; 4 h after last administration,0.79 ± 0.12 ng/mg cryosection and 1.94 ± 0.37 ng/mg cryosection
same,BTZ-043 concentration in lung cryosections,[1]; 8 h after last administration,0.27 ± 0.05 ng/mg cryosection and 0.65 ± 0.06 ng/mg cryosection
same,pulmonary BTZ-043 concentrations relative to the MIC,"[1]; all time points investigated (0.5-8 h), n=8 mice",substantially higher than the MIC at all time points investigated
same,BTZ-043 concentration in the whole section above the MIC,"[1]; lung cryosections, 4 and 8 h",at least 100 x
same,concentration at 4 h,"[2]; TB granulomas laser-dissected from lung cryosections, 250 mg/kg, 4 h after administration, assumed tissue density 1 g/mL, read-out: mean BTZ-043 concentration within TB granulomas",570 ng/mL
same,concentration at 4 h,"[2]; lung, laser-dissected necrotic granuloma, 250 mg/kg, LCM flakes from granulome area (granuloma), IL-13tg mouse lung cryosections, 4h post administration, read-out: ng/mg lung tissue, technical replicate 2",495 ng/g
same,concentration at 4 h,"[2]; lung, laser-dissected necrotic granuloma, 250 mg/kg, LCM flakes from granulome area (granuloma), mean of 2 technical replicates, 4h post administration, read-out: ng/mg lung tissue, Mean",430 ng/g
same,concentration at 4 h,"[2]; lung, whole cryosection, 250 mg/kg, whole cryosection from OT207 (QC, internal control), 4h post administration, read-out: ng/mg lung tissue, technical replicate 1",779 ng/g
same,concentration at 4 h,"[2]; lung, whole cryosection, 250 mg/kg, whole cryosection from OT207 (QC, internal control), 4h post administration, read-out: ng/mg lung tissue, technical replicate 2",846 ng/g
same,concentration at 4 h,"[2]; lung, whole cryosection, 250 mg/kg, whole cryosection from OT207 (QC, internal control), mean of 2 technical replicates, 4h post administration, read-out: ng/mg lung tissue, Mean",810 ng/g
same,concentration at 4 h,"[2]; necrotic granulomas laser-dissected from lung cryosections, 250 mg/kg/day, IL-13tg mouse, 250 mg/kg/day 10 days, 4 h after application, read-out: mean BTZ-043 concentration in necrotic granulomas",570 ng/g
same,concentration at 4 h,"[2]; non-necrotic regions laser-dissected from lung cryosections, 250 mg/kg/day, IL-13tg mouse, 250 mg/kg/day 10 days, 4 h after application, read-out: mean BTZ-043 concentration in non-necrotic regions",340 ng/g
same,concentration at 4 h,"[2]; 250 mg/kg, LCM flakes from adjacent area (non necrotic), 4h post administration, read-out: ng/mg lung tissue, technical replicate 1",388 ng/g
same,concentration at 4 h,"[2]; 250 mg/kg, LCM flakes from adjacent area (non necrotic), 4h post administration, read-out: ng/mg lung tissue, technical replicate 2",371 ng/g
same,concentration at 4 h,"[2]; 250 mg/kg, LCM flakes from adjacent area (non necrotic), mean of 2 technical replicates, 4h post administration, read-out: ng/mg lung tissue, Mean",380 ng/g
same,"ng/mg lung tissue, technical replicate 1",[2]; [3],0.303 ng/mg lung tissue and 0.478 ng/mg lung tissue
same,"ng/mg lung tissue, technical replicate 2",[2]; [3],0.299 ng/mg lung tissue and 0.205 ng/mg lung tissue
same,"ng/mg lung tissue, Mean","[2]; LCM flakes from adjacent area (non necrotic), mean of 2 technical replicates, 4h post administration, listed as BTZ",0.30 ng/mg lung tissue and 0.34 ng/mg lung tissue
same,"ng/mg lung tissue, Mean","[2]; LCM flakes from granulome area (granuloma), mean of 2 technical replicates, 4h post administration, listed as BTZ",0.66 ng/mg lung tissue and 0.65 ng/mg lung tissue
